Reference: publication PMC4245164 (ACS Chemical Biology, 2014)

Biological target: NLuc (Oplophorus gracilirostris, UniProt Q9GV45, A31E/A60N/A81I/F95D/I117V/K70R/L54V/L99Q/M102K/N193R/P142E/Q151K/Q38R/Q45L/V71I/Y165I)
Experiment: Biochemical NLuc enzyme assay with S16 secNLuc cell culture medium

Chain of NLuc (Q9GV45 28-196 with the stated changes): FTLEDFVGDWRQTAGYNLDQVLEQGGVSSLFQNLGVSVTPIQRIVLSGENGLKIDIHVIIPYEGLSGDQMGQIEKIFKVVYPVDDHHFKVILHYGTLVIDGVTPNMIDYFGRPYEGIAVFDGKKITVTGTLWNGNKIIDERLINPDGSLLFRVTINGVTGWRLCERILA

SMILES	IC50
CCOC(=O)C1=C(C)NC(C)=C(C(=O)OC)C1c1cccc([N+](=O)[O-])c1 (centres unmarked) [nitrendipine]	6 µM
COC(=O)C1=C(C)NC(C)=C(C(=O)OC(C)C)C1c1cccc2nonc12 (centres unmarked) [isradipine]	6 µM
